# Test results as given in article PMC12734371, “Synthesis, Anti-Tumour, and Antibacterial Activities of Monocarbonyl Curcumin Analogues of Piperidones” (International Journal of Molecular Sciences, 2025).
# “Also recorded” adds a separate entry of the source. Read-outs that look alike come from different tables or passages of the source.
# Columns and labels:
# A549 cells [1] = experiment: MTT assay, inhibition of tumour cell growth; format: cell-based, human; settings: mean ± s, n = 3
# Description: (§1) The tumour cell suspension in logarithmic growth phase, containing about 5 × 10^3 cells, was taken and seeded onto a 96-well plate and gently shaken to disperse the cells evenly at the bottom of the plate. The cells were incubated in a constant temperature (37 °C) incubator for 24 h. The old medium was discarded, and 100 μL of the prepared working solution of piperidinone monocarbonyl curcumin analogues at different concentrations was added, and the cells were incubated in a constant temperature incubator for 24 h. Blank medium wells, blank cell wells, and 0.9% DMSO (highest content) wells were set up, with 6 multi-well and 3 multi-plates for each concentration. The discarded old medium was absorbed, and 100 μL of 10% 5 mg/mL MTT working solution was added to each well (operated away from light) and placed in a cell incubator for further incubation for 4 h. The old medium was discarded, and 100 μL of DMSO was added to each well and shaken in an air shaker at 100 RPM for 10 min. The absorbance of the OD value was measured at 490 nm by a multifunctional microplate analyzer. According to Formula (1), the inhibition rates of different piperidones monocarbonyl curcumin analograms on 4 tumour cells were calculated, and IC50 was calculated by GraphPad Prism 8.0:Inhibition rate (%) = (OD blank cell group − OD administration group)/OD blank cell group(1)
# Hela cells = experiment: MTT assay, inhibition of tumour cell growth; format: cell-based, human; settings: 24 h, mean ± s, n = 3
# Description: as §1
# HepG2 cells = experiment: MTT assay, inhibition of tumour cell growth; format: cell-based, human; settings: mean ± s, n = 3
# Description: as §1
# MCF-7 cells = experiment: MTT assay, inhibition of tumour cell growth; format: cell-based, human; settings: mean ± s, n = 3
# Description: as §1
# L02 cells = experiment: MTT assay, toxicity to human normal liver cells; format: cell-based; settings: mean ± s, n = 3
# Description: The cells were passaged to the fourth generation of L02 cells, and the cell suspension containing about 5 × 10^3 cells was added to each well of the 96-well plate and cultured in a cell culture incubator for 24 h. The old medium was discarded, and different concentrations of liquid medicine (6 porous and 3 plates for each concentration) were added and incubated for 24 h. The old medium was discarded, 10% of 5 mg/mL MTT working solution was added in the dark, and the cells were incubated in a cell incubator for 4 h. The old medium was discarded, 100 μL DMSO was added to each well, and 100 RPM was oscillated on an air shaker for 10 min. The OD value was measured at 490 nm with a multifunctional microplate reader. According to the OD value, the inhibition rate of different piperidone monocarbonyl curcumin analogues on L02 cells was calculated according to Formula (1), and IC50 was calculated by Graph Pad Prism 8.0.
# A549 cells [2] = experiment: Cell wound scratch assay (migration); format: cell-based, human; settings: 6 h; high, medium, and low concentrations
# Description: A549 cells in logarithmic phase were digested with 0.25% trypsin and blown to single cell suspension with a dropper. The cell density was adjusted to 5 × 10^5 cells/mL. The cells were inoculated on 6-well plates, 2 mL per well, and cultured in a cell incubator at 37 °C, 5% CO2, and saturated humidity for 24 h until the gaps were basically fused. A 10 μL micro pipette tip was used to scratch vertically in a 6-well plate. After washing with PBS solution 3 times, the drug-containing medium was added, 2 mL per well, and three wells were set in each group. The culture plates were placed in a 5% CO2 incubator at 37 °C for 6 h and 24 h and observed and photographed with an inverted fluorescence microscope. The images were obtained by NIS Elements Viewer 4.2.0, and the scratch area and width were calculated. The cell migration rate was calculated by Formula (2):[Cell migration rate (%) = (0 h scratch area − scratch area at different times)/0 h scratch area × 100%](2)
# A549 cells [3] = experiment: Cell morphology by inverted microscope; format: cell-based, human; settings: 5 μmol/L, 24 h
# Description: The cells were inoculated in a 6-well plate, and about 1 × 10^6 A549 cells in the logarithmic growth phase were inoculated in each well. After the cells were cultured in a constant temperature incubator for 24 h, the old medium was discarded, and five kinds of piperidone monocarbonyl curcumin analogue solution (5, 10, and 20 μmol/L), curcumin (10, 20, and 40 μmol/L), and 0.9% DMSO were added as the blank control group for 24 h, and then the cell morphology was observed by inverted microscope (200×).
# [4] = test system: ERK (extracellular regulated protein kinases); experiment: Western blot, ERK level in A549 cells; format: cell-based, human; settings: 10, 5, 2.5 μmol/L, 24 h
# Description: A549 cells in logarithmic growth phase were seeded in 6-well plates at 1 × 10^6 cells/mL per well. The cells were cultured overnight in an incubator. Different concentrations of drug-containing medium of 2,5-2Cl, 2Br-5Cl, 2-Cl, 2-F, benzaldehyde ([…]), curcumin (20 μmol/L), and cisplatin (30 μmol/L) were added, and the blank control […] The RIPA cell lysis buffer containing protease inhibitors was added to the Petri dish to collect the proteins of each experimental group, and the supernatant was collected as a protein sample after ultrasonic centrifugation. Protein quantification was performed by the BCA method. A total of 20 μg protein was separated by 10% SDS-PAGE, and then the protein was transferred to a PVDF membrane. The membrane was blocked with 5% skim milk for 1 h, and the corresponding primary antibody was incubated at 4 °C overnight. After washing the membrane three times with TBST, the bands were incubated with the corresponding secondary antibodies at room temperature for 1 h. After cleaning the membrane with TBST 3 times, the darkroom was developed with ECL luminescence. Using GAPDH as an internal reference, the protein bands were analyzed by ImageJ 1.8.0.
# MRSA [5] = experiment: Broth microdilution inhibition test and MIC; format: cell-based, methicillin-resistant Staphylococcus aureus; settings: for MIC: broth microdilution
# Description: Then, the MIC values of 100% compounds at the maximum inhibitory concentration were obtained by the broth microdilution method. The specific experiments are as follows: First, in the 96-well plate, add 100 μL of compound working solution from column 2 to column 8, with concentrations decreasing from high to low, repeating each concentration 6 times. Add 100 μL of NB nutrient broth containing 1% DMSO to column 9, and 100 μL of blank NB nutrient broth to columns 10 and 11. Then, add 10 μL of bacterial suspension to each well from columns 2 to 10. Place the 96-well plate in a 37 °C incubator for 16 h at 100 rpm and measure the absorbance at 600 nm by microplate reader. Columns 2 to 9 represent the drug treatment group, column 10 is the negative control group, and column 11 is the blank control group. The minimum concentration that inhibits bacterial growth is the MIC value of the compound: Bacterial inhibition rate (%) = (OD administration − OD control)/(ODcontrol − OD blank) (3)
# MRSA [6] = experiment: Time inhibition curve against MRSA; format: cell-based, methicillin-resistant Staphylococcus aureus; settings: 160 μmol/L and 80 μmol/L
# Description: Based on the results of previous experiments, the promising compounds were selected. According to the administration method under ‘2.3.2’, the absorbance values of the promising compounds at 600 nm at different concentrations of bacteria at 4, 14, 18, and 24 h were measured by a microplate reader, and the inhibitory effect of the compounds on MRSA at different time points was calculated. The time inhibition curve of the compound against MRSA was made with the abscissa as the time and the ordinate as the bacterial inhibition rate.
# MRSA [7] = experiment: AGAR plate zone of inhibition test (filter paper); format: cell-based, methicillin-resistant Staphylococcus aureus; settings: 160 μmol/L, 6 mm filter paper, 16 h, mean ± s; for zone of inhibition at 160 µM: Staphylococcus aureus, n = 3, read-out: Diameter of Bacteriostatic Zone
# Description: Based on the results of previous experiments, the promising compounds were selected, and the size of the inhibition zone at 160 μmol/L was determined. The specific operation was as follows: The nutrient agar medium, after high temperature sterilization, was poured into about 20 mL per 9 cm plate in an ultra-clean bench and naturally cooled and solidified. Each plate was evenly coated with 100 μL MRSA bacterial suspension. The filter paper of 6 mm diameter soaked in the drug solution was dried by flame evaporation, and four tablets were placed in parallel into each plate, cultured in a constant temperature incubator at 37 °C for 16 h, and the size of the inhibition zone was measured.
# A549 cells [8] = experiment: Flow cytometry apoptosis (Annexin V/PI); format: cell-based, human; settings: 24 h
# Description: The A549 cells in logarithmic growth phase were inoculated in 6-well plates at 1 × 10^6 cells. After resting in the incubator for 24 h, the cells were treated with different concentrations of drugs. The blank control group was added with the medium with the highest concentration of DMSO. After 24 h of culture, cells were collected, washed with PBS, transferred to a flow tube, and resuspended with 100 μL of 1 × Annexin V conjugate. Add 4 μL YF4/88-Annexin N and 5 μL PI working solution. The cells were incubated in the dark at room temperature for 10 min, transferred to a flow cytometer tube, added with 200 μL of 1 × Annexin V conjugate, and immediately detected by flow cytometry.
Compound,IC50 (A549 cells [1]; 24 h) [µM],IC50 (Hela cells) [µM],IC50 (HepG2 cells; 24 h) [µM],IC50 (MCF-7 cells; 24 h) [µM],further results
"3,5-Bis(2-bromo-benzyl)-4-piperidone",16.6 ± 1.84,12.3 ± 2.67,7.03 ± 3.24,> 40,
"3,5-Bis(3,5-dibromo-benzyl)-4-piperidone [3,5-2Br]",> 40,12.8 ± 3.18,> 40,> 40,
"3,5-Bis(4-bromo-benzyl)-4-piperidinone",15.5 ± 2.35,> 40,7.15 ± 4.62,19.7 ± 3.68,
O=C1C(=Cc2ccccc2Cl)CNCC1=Cc1ccccc1Cl [2-Cl],4.81 ± 1.69,6.61 ± 1.93,8.53 ± 2.61,5.7 ± 1.21,IC50 (L02 cells; 24 h): 70.5 ± 1.85 µM; Cell migration rate vs blank control (0.9% DMSO) (A549 cells [2]): no statistical difference; Cell morphology (A549 cells [3]): most of the cells became round and loose; ERK protein level vs control group [4]: significantly lower; Inhibition rate of MRSA (MRSA [5]; 60 μmol/L): less than 100%; Inhibition rate of MRSA (MRSA [5]; 70 μmol/L): 100%; Inhibition of MRSA (MRSA [5]; 160 μmol/L): 100%; MIC (MRSA [5]; MRSA): 70 µM; Inhibition rate of MRSA over time (MRSA [6]; 18 h): 100%; Inhibition rate of MRSA over time (MRSA [6]; 24 h): 87.02%; Diameter of Bacteriostatic Zone (MRSA [7]; n = 3): 14.67 ± 0.58 mm
O=C1C(=Cc2ccc(Cl)cc2Br)CNCC1=Cc1ccc(Cl)cc1Br [2Br-4Cl],18.2 ± 3.15,23.4 ± 3.34,27.3 ± 2.64,> 40,
O=C1C(=Cc2ccc(F)cc2Br)CNCC1=Cc1ccc(F)cc1Br [2Br-4F],21.8 ± 3.68,> 40,18.3 ± 4.38,> 40,
O=C1C(=Cc2cc(Cl)ccc2Br)CNCC1=Cc1cc(Cl)ccc1Br [2Br-5Cl],4.75 ± 1.51,6.24 ± 2.46,8.42 ± 1.99,6.36 ± 1.28,IC50 (L02 cells; 24 h): 58.2 ± 2.79 µM; Cell migration rate vs blank control (0.9% DMSO) (A549 cells [2]): no statistical difference; Cell morphology (A549 cells [3]): most of the cells became round and loose; ERK protein level vs control group [4]: significantly lower; also recorded: most obvious
"O=C1C(=Cc2ccc(Cl)c(Cl)c2)CNCC1=Cc1ccc(Cl)c(Cl)c1 [3,4-2Cl, 3,5-Bis(3,4-dichlorobenzylidene)-4-piperidone]",,,,,"IC50 (A549 cells [1]; Homo sapiens, A549, 24 h): 11.9 ± 4.64 µM; IC50 (Hela cells; Homo sapiens, HeLa): > 40 µM; IC50 (HepG2 cells; Homo sapiens, HepG2, 24 h): > 40 µM; IC50 (MCF-7 cells; Homo sapiens, MCF7, 24 h): > 40 µM"
O=C1C(=Cc2cccc(Br)c2)CNCC1=Cc1cccc(Br)c1 [3-Br],> 40,> 40,18.3 ± 3.44,22.5 ± 3.55,
O=C1C(=Cc2ccc(Br)cc2F)CNCC1=Cc1ccc(Br)cc1F [4Br-2F],20.2 ± 4.15,18.7 ± 3.66,16.4 ± 1.97,28.5 ± 2.91,
O=C1C(=Cc2cc(Br)ccc2Cl)CNCC1=Cc1cc(Br)ccc1Cl [5Br-2Cl],14.2 ± 3.85,> 40,29.3 ± 2.94,> 40,
"N.N.[Cl][Pt][Cl] [Cisplatin solution, reference compound]",41.2 ± 3.49,59.4 ± 1.7,27.7 ± 3.26,55.2 ± 4.09,IC50 (L02 cells; 24 h): 48.4 ± 3.83 µM; Proportion of normal cells (flow cytometry) (A549 cells [8]; 30 μmol/L): 86.27%
COc1cc(/C=C/C(=O)CC(=O)/C=C/c2ccc(O)c(OC)c2)ccc1O [Curcumin],,,,,"IC50 (A549 cells [1]; Homo sapiens, A549, 24 h): 33.5 ± 3.83 µM; IC50 (Hela cells; Homo sapiens, HeLa): 29.2 ± 2.57 µM; IC50 (HepG2 cells; Homo sapiens, HepG2, 24 h): 17.6 ± 3.43 µM; IC50 (MCF-7 cells; Homo sapiens, MCF7, 24 h): 39.2 ± 2.81 µM; IC50 (L02 cells; Homo sapiens, L02, 24 h): 30.4 ± 1.04 µM; Proportion of normal cells (flow cytometry) (A549 cells [8]; 20 μmol/L): 84.27%"
CC1(C)S[C@@H]2[C@H](NC(=O)Cc3ccccc3)C(=O)N2[C@H]1C(=O)O [Penicillin],,,,,zone of inhibition at 160 µM (MRSA [7]): 8.67 ± 0.58 mm
"NC[C@H]1O[C@H](O[C@H]2[C@H](O)[C@@H](O[C@H]3O[C@H](CO)[C@@H](O)[C@H](N)[C@H]3O)[C@H](N)C[C@@H]2N)[C@H](N)C[C@@H]1O [Tobramycin, reference compound]",,,,,"inhibition at 70 µM (MRSA [5]; Staphylococcus aureus, MRSA, 70 μmol/L, read-out: Inhibition rate of MRSA): < 100%; inhibition at 80 µM (MRSA [5]; Staphylococcus aureus, MRSA, 80 μmol/L, read-out: Inhibition rate of MRSA): 100%; inhibition at 160 µM (MRSA [5]; Staphylococcus aureus, MRSA, 160 μmol/L): 100%; MIC (MRSA [5]; Staphylococcus aureus, MRSA, read-out: MIC): 80 µM; zone of inhibition at 160 µM (MRSA [7]): 10.7 ± 0.58 mm"
